The supplement of paper PMC10307832

Experiments:
Test in all cases: relative viability (nuclei count vs DMSO), 5 days (fraction); higher = more cells survive
Tosedostat + Pemetrexed = compound: CC(C)C[C@@H](C(=O)N[C@H](C(=O)OC1CCCC1)c1ccccc1)[C@H](O)C(=O)NO [Tosedostat] + Nc1nc2[nH]cc(CCc3ccc(C(=O)N[C@@H](CCC(=O)O)C(=O)O)cc3)c2c(=O)[nH]1 [Pemetrexed] (partner 0.2 µM)
How it was run: (§1)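 Lung cancer cell lines in 1536-well plates were dosed by pin tool the day after seeding, either with one drug alone or with a fixed anchor-drug dose plus five library-drug doses (not always all listed) in √10 steps. After 5 days, cells were fixed and their nuclei stained in one step (final 0.05% Triton X-100, 1% formaldehyde, 1 ug/ml Hoechst), then counted on 4× images. Relative viability is the nuclei count in treated wells divided by that in vehicle wells. Values are medians of duplicate plates.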

[1] = compound: CC1=NN=C(O1)C2=NN=C(C=C2)N3CCC(CC3)OC4=C(C=CC(=C4)F)Cl + CC(=O)Nc1cccc(-n2c(=O)n(C3CC3)c(=O)c3c(Nc4ccc(I)cc4F)n(C)c(=O)c(C)c32)c1 [Trametinib] (partner 0.02 µM)
How it was run: as §1

[2] = compound: CC1=NN=C(O1)C2=NN=C(C=C2)N3CCC(CC3)OC4=C(C=CC(=C4)F)Cl + COc1cc2c(Oc3ccc(NC(=O)C4(C(=O)Nc5ccc(F)cc5)CC4)cc3F)ccnc2cc1OCCCN1CCOCC1 [Foretinib] (partner 0.25 µM)
How it was run: as §1

[3] = compound: CC1=NN=C(O1)C2=NN=C(C=C2)N3CCC(CC3)OC4=C(C=CC(=C4)F)Cl + Nc1nc2[nH]cc(CCc3ccc(C(=O)N[C@@H](CCC(=O)O)C(=O)O)cc3)c2c(=O)[nH]1 [Pemetrexed] (partner 0.2 µM)
How it was run: as §1

Row | Cell Line | relative viability (Tosedostat + Pemetrexed; first compound 0.02 µM) | relative viability (Tosedostat + Pemetrexed; first compound 0.06325 µM) | relative viability (Tosedostat + Pemetrexed; first compound 0.2 µM) | relative viability (Tosedostat + Pemetrexed; first compound 0.6325 µM) | relative viability (Tosedostat + Pemetrexed; first compound 2 µM) | relative viability ([1]; first compound 0.253 µM) | relative viability ([1]; first compound 0.8 µM) | relative viability ([1]; first compound 2.53 µM) | relative viability ([1]; first compound 8 µM) | relative viability ([2]; first compound 0.253 µM) | relative viability ([2]; first compound 0.8 µM) | relative viability ([2]; first compound 2.53 µM) | relative viability ([2]; first compound 8 µM) | relative viability ([3]; first compound 0.253 µM) | relative viability ([3]; first compound 0.8 µM) | relative viability ([3]; first compound 2.53 µM) | relative viability ([3]; first compound 8 µM)
1 | LXF-289 | 0.949 | 0.978 | 1.05 | 0.944 | 1.07 | 0.603 | 0.582 | 0.637 | 0.58 | 0.692 | 0.671 | 0.66 | 0.563 | 0.768 | 0.594 | 0.767 | 0.726
2 | ABC-1 | – | – | – | – | – | – | – | – | – | 0.601 | 0.439 | 0.578 | 0.644 | – | – | – | –
3 | NCI-H2170 | 0.262 | 0.29 | 0.244 | 0.348 | 0.352 | 0.377 | 0.392 | 0.368 | 0.356 | 0.466 | 0.575 | 0.583 | 0.432 | 0.241 | 0.218 | 0.242 | 0.256
4 | NCI-H1437 | 0.297 | 0.353 | 0.335 | 0.354 | 0.391 | 0.391 | 0.367 | 0.491 | 0.375 | 0.724 | 0.805 | 0.729 | 0.512 | 0.24 | 0.282 | 0.232 | 0.218
5 | EBC-1 | – | – | – | – | – | – | – | – | – | 0.0917 | 0.0957 | 0.103 | 0.0946 | – | – | – | –
6 | NCI-H441 | 0.228 | 0.246 | 0.275 | 0.266 | 0.309 | 0.343 | 0.327 | 0.462 | 0.409 | 0.658 | 0.78 | 0.686 | 0.605 | 0.295 | 0.265 | 0.223 | 0.258
7 | NCI-H2087 | 0.682 | 0.754 | 0.709 | 0.727 | 0.612 | 0.167 | 0.196 | 0.244 | 0.175 | 0.593 | 0.641 | 0.626 | 0.489 | 0.561 | 0.534 | 0.511 | 0.47
8 | NCI-H647 | 0.178 | 0.163 | 0.167 | 0.196 | 0.179 | 0.287 | 0.5 | 0.45 | 0.297 | 0.565 | 0.623 | 0.586 | 0.426 | 0.11 | 0.158 | 0.13 | 0.111
9 | SW 1573 | 0.972 | 0.856 | 0.899 | 0.777 | 1 | 0.512 | 0.43 | 0.445 | 0.306 | 0.99 | 0.86 | 0.909 | 0.569 | 0.819 | 0.881 | 0.828 | 0.534
10 | HARA | 0.212 | 0.248 | 0.222 | 0.203 | 0.25 | 0.438 | 0.369 | 0.448 | 0.322 | 0.538 | 0.289 | 0.317 | 0.273 | 0.245 | 0.26 | 0.239 | 0.231
11 | NCI-H2347 | 0.443 | 0.425 | 0.434 | 0.421 | 0.374 | 0.234 | 0.288 | 0.256 | 0.246 | 0.904 | 0.931 | 0.707 | 0.824 | 0.422 | 0.406 | 0.442 | 0.39
12 | NCI-H1651 | 0.586 | 0.637 | 0.555 | 0.711 | 0.623 | 0.651 | 0.621 | 0.609 | 0.576 | 0.819 | 0.619 | 0.689 | 0.848 | 0.488 | 0.422 | 0.445 | 0.444
13 | NCI-H2342 | 0.755 | 0.776 | 0.846 | 0.79 | 0.728 | 0.581 | 0.554 | 0.55 | 0.486 | 0.671 | 0.627 | 0.684 | 0.545 | 0.646 | 0.663 | 0.701 | 0.614
14 | NCI-H2009 | 1.07 | 0.998 | 1.07 | 0.977 | 1.1 | 0.257 | 0.23 | 0.233 | 0.174 | 0.711 | 0.667 | 0.644 | 0.636 | 0.605 | 0.547 | 0.587 | 0.517
15 | ChaGo-K-1 | 0.269 | 0.257 | 0.275 | 0.267 | 0.275 | 0.649 | 0.555 | 0.613 | 0.57 | 0.773 | 0.709 | 0.785 | 0.739 | 0.245 | 0.265 | 0.248 | 0.266
16 | HCC-44 | 0.69 | 0.68 | 0.679 | 0.642 | 0.639 | 0.608 | 0.994 | 0.945 | 0.856 | – | – | – | – | 0.264 | 0.378 | 0.282 | 0.31
17 | NCI-H727 | – | – | – | – | – | 0.467 | 0.402 | 0.385 | 0.341 | 0.786 | 0.822 | 0.838 | 0.828 | – | – | – | –
18 | A549 | – | – | – | – | – | – | – | – | – | 0.746 | 0.545 | 0.464 | 0.53 | – | – | – | –
19 | NCI-H1299 | – | – | – | – | – | – | – | – | – | 1.09 | 1.08 | 1.05 | 1.02 | – | – | – | –
20 | IA-LM | – | – | – | – | – | – | – | – | – | 0.164 | 0.158 | 0.171 | 0.167 | – | – | – | –
21 | NCI-H1792 | 0.92 | 0.884 | 0.838 | 0.935 | 0.658 | 0.359 | 0.398 | 0.647 | 0.487 | – | – | – | – | 0.735 | 0.648 | 0.785 | 0.6
22 | NCI-H1563 | 0.838 | 0.99 | 0.797 | 1.14 | 0.839 | – | – | – | – | 0.925 | 0.866 | 0.931 | 0.951 | 0.735 | 0.878 | 0.825 | 0.648
23 | NCI-H1648 | 0.656 | 0.736 | 0.99 | 0.966 | 0.532 | 0.442 | 0.43 | 0.405 | 0.479 | – | – | – | – | 0.593 | 0.625 | 0.647 | 0.685
